Source: the OligoGym collection
These antisense oligonucleotides have a phosphorothioate backbone; sugars and methylation of C are not fully specified.

Tests used:
PYGL = settings: ASO
GNAI2 = settings: ASO
Further: test concentration or dose not given here.

ACAGTTCAAGAGCTGTCGCT showed a remaining target (mRNA or protein) (fraction of control) (PYGL) of 0.39.

In the case of ACGGGCCAGCGCTCCAGGGC, the remaining target (mRNA or protein) (fraction of control) (PYGL) is reported as 0.47.

In the case of AGGATGGGTTGATCTTCACT, the remaining target (mRNA or protein) (fraction of control) (PYGL) is reported as 0.39.

With AGTATTCTTTTGCCTCGTAC the remaining target (mRNA or protein) (fraction of control) (PYGL) was 0.21.

In the case of ATCACCCAGGAAGCTGTGGA, the remaining target (mRNA or protein) (fraction of control) (PYGL) is reported as 0.31.

In the case of ATCAGAGACATCCTTCTCAG, the remaining target (mRNA or protein) (fraction of control) (PYGL) is reported as 0.33.

Work on ATCTGTGGCTGGAATGACTT yielded a remaining target (mRNA or protein) (fraction of control) (PYGL) of 0.79.

ATGCTCATGCCAAAGATGAA was tested, and the remaining target (mRNA or protein) (fraction of control) (PYGL) was 0.98.

For ATGCTTCTGATTTATCTCAT, the remaining target (mRNA or protein) (fraction of control) (PYGL) was 0.49.

Work on ATTGTCATTGGGATAGAGGA yielded a remaining target (mRNA or protein) (fraction of control) (PYGL) of 0.49.

For ATTTTGCAGACCGAGGTTGA, the remaining target (mRNA or protein) (fraction of control) (PYGL) was 0.31.

Work on CACAGCATGGGAACCGACAA yielded a remaining target (mRNA or protein) (fraction of control) (PYGL) of 0.15.

CAGCGGTTCGCCCATGGCTG showed a remaining target (mRNA or protein) (fraction of control) (PYGL) of 0.98.

CAGCTTTACCACCAATGATA gave a remaining target (mRNA or protein) (fraction of control) (PYGL) of 0.29.

CCACATTGGCCCCATCCATG gave a remaining target (mRNA or protein) (fraction of control) (PYGL) of 0.19.

CCCATGTAAAATTCCAGAGA was tested, and the remaining target (mRNA or protein) (fraction of control) (PYGL) was 0.44.

Work on CCCCATTCCCAGAGATACTC yielded a remaining target (mRNA or protein) (fraction of control) (PYGL) of 0.32.

For CCGCCCCGCCGCGCCAGGAG, the remaining target (mRNA or protein) (fraction of control) (PYGL) was ≥ 1.

In the case of CGGGCTGCGCAGAGAGCTGG, the remaining target (mRNA or protein) (fraction of control) (PYGL) is reported as 0.87.

CGTTCTTGGTGTCGGTGG was tested, and the remaining target (mRNA or protein) (fraction of control) (GNAI2) was 0.39.

CTCTTCTATATCCAATCCAA showed a remaining target (mRNA or protein) (fraction of control) (PYGL) of 0.63.

In the case of CTGCAAGTCCTGGGTTGCAG, the remaining target (mRNA or protein) (fraction of control) (PYGL) is reported as 0.49.

Sequence CTGCTTGACGATGGTGCT has a remaining target (mRNA or protein) (fraction of control) (GNAI2) of 0.6.

Work on CTGTGACGCCCTCAAAGC yielded a remaining target (mRNA or protein) (fraction of control) (GNAI2) of 0.51.

For CTTCCCTGACTCCCCAGC, the remaining target (mRNA or protein) (fraction of control) (GNAI2) was 0.3.

For CTTGAAGGTGAAGTGTGT, the remaining target (mRNA or protein) (fraction of control) (GNAI2) was 0.74.

CTTGACCAGCGTGAAGTGCA was tested, and the remaining target (mRNA or protein) (fraction of control) (PYGL) was 0.48.

GAACATAAGCCAGAAGGG gave a remaining target (mRNA or protein) (fraction of control) (GNAI2) of 0.94.

GAAGTCCTTGAATACTTTAG gave a remaining target (mRNA or protein) (fraction of control) (PYGL) of 0.4.

With GCAGGCAGCAAGTCTCCCAA the remaining target (mRNA or protein) (fraction of control) (PYGL) was 0.29.

Work on GCCCCGCTGCCCCTCAGA yielded a remaining target (mRNA or protein) (fraction of control) (GNAI2) of 0.65.

With GCCGTATCCATAGGCTGCAA the remaining target (mRNA or protein) (fraction of control) (PYGL) was ≥ 1.

In the case of GCGAACCCCTCCCCTACG, the remaining target (mRNA or protein) (fraction of control) (GNAI2) is reported as 0.71.

GCGCGAAGTAGTAGTCGCGG gave a remaining target (mRNA or protein) (fraction of control) (PYGL) of 0.8.

For GCGCTTATTCAGGTCCTC, the remaining target (mRNA or protein) (fraction of control) (GNAI2) was 0.33.

Work on GGAAAGAGGAGAAAAGCG yielded a remaining target (mRNA or protein) (fraction of control) (GNAI2) of 0.65.

Sequence GGCAGGCTTCAAACAGGG has a remaining target (mRNA or protein) (fraction of control) (GNAI2) of 0.52.

In the case of GGCCTGTGCGAACCCCTC, the remaining target (mRNA or protein) (fraction of control) (GNAI2) is reported as 0.96.

With GGGAAGCAGATGGTCAGG the remaining target (mRNA or protein) (fraction of control) (GNAI2) was 0.86.

With GGGCGGGACTTCTCCCAAGG the remaining target (mRNA or protein) (fraction of control) (PYGL) was 0.79.

For GGGTCCGTAGCACATCTT, the remaining target (mRNA or protein) (fraction of control) (GNAI2) was 0.47.

With GGTGTTGACAGTGTTATTCA the remaining target (mRNA or protein) (fraction of control) (PYGL) was 0.56.

For GGTTCATCTCCTCGTCCT, the remaining target (mRNA or protein) (fraction of control) (GNAI2) was 0.64.

For TACCTGCCATCCATCTCGGA, the remaining target (mRNA or protein) (fraction of control) (PYGL) was 0.15.

TCATATTGCCTGTCCCCGAG was tested, and the remaining target (mRNA or protein) (fraction of control) (PYGL) was 0.18.

For TCATGATAAAATAGCATGTT, the remaining target (mRNA or protein) (fraction of control) (PYGL) was ≥ 1.

TCCAACATTAAAGTCTCTGA gave a remaining target (mRNA or protein) (fraction of control) (PYGL) of 0.62.

Sequence TCCAGCGCCCCACCAGGTGG has a remaining target (mRNA or protein) (fraction of control) (PYGL) of 0.44.

TCCCGGTGTTGGTGTGTTCT gave a remaining target (mRNA or protein) (fraction of control) (PYGL) of 0.63.

With TCTGTCAGCGGTTCGCCCAT the remaining target (mRNA or protein) (fraction of control) (PYGL) was 0.69.

TGAAGTGTGTCTCCACGA gave a remaining target (mRNA or protein) (fraction of control) (GNAI2) of 0.61.

For TGAGCAGGTGGACTGTGG, the remaining target (mRNA or protein) (fraction of control) (GNAI2) was 0.31.

For TGCCACGTTCTCCACGCCCA, the remaining target (mRNA or protein) (fraction of control) (PYGL) was 0.18.

In the case of TTCAGGTCCTCAAACTTA, the remaining target (mRNA or protein) (fraction of control) (GNAI2) is reported as 0.38.
